How the values were obtained:
[1] = molecular target: T1, WEE1 (Homo sapiens, UniProt P30291+Q96SW2); experiment: WEE1-ePL degradation assay (LentiX-WEE1-ePL-GSPT1-ND cells, InCELL Hunter luminescence, 4 h); format: cell-based; details: 293T-LentiX WEE1-ePL cells; for 293T-LentiX WEE1-ePL Degradation 4 hr (Ymin): lower limit of the fit (0 = luciferase inhibitor, Ymax = DMSO control); for DC50: read-out: 293T-LentiX WEE1-ePL Degradation 4 hr (EC50)
T1 construct: C-terminal ePL-tagged (DiscoverX, Fremont, CA) full-length WEE1 expression construct; expressed in transfected cells; host or cells: LentiX-HEK293T (Invitrogen), lentiviral transduction; co-expressing GSPT1-GN (G576N, lacking the first 158 amino acids)
In short: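 First, compounds were pre-plated as 10-point, 3-fold dilutions (top 1 uM or 10 uM) with DMSO control; next, WEE1-ePL-expressing HEK293T cells were added and held 4 h at 37 °C; finally, InCELL Hunter reagent was applied for 30 min before luminescence reading. A 4PL fit gave EC50 and Ymin.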

[2] = system: MKN45 cells; experiment: MKN45 cell proliferation assay (Cell-Titer-Glo, 120 h); format: cell-based; details: for EC50: Homo sapiens, MKN-45, 120 h, Cell-Titer-Glo, growth inhibition, read-out: MKN45 Cell Prolif. 120 hr (EC50); for MKN45 Cell Prolif. 120 hr (Ymin-Obs): minimal percent of DMSO control observed in the concentrations tested
In short: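 Growth inhibition was read as blank-corrected Cell-Titer-Glo luminescence expressed as percent DMSO control after 120 h at 37 C, 400 cells/well. Compounds tested in triplicate as 10-point half-log series from 1 or 10 uM, 0.1% DMSO; four-parameter fit gave EC50, and lowest observed percent control was reported as Ymin-obs.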

O=C1CCC(N2Cc3cc(O[C@H]4CCN(Cc5ccc6nc(C7CC7)ccc6c5)C4)ccc3C2=O)C(=O)N1 (stereo partly drawn) [3-(5-{[(3S)-1-[(2-cyclopropylquinolin-6-yl)methyl]pyrrolidin-3-yl]oxy}-1-oxo-2,3-dihydro-1H-isoindol-2-yl)piperidine-2,6-dione]
293T-LentiX WEE1-ePL Degradation 4 hr (Ymin) [1]: 34.33
DC50 [1]: 2.21 nM
EC50 [2]: 6.03 nM
MKN45 Cell Prolif. 120 hr (Ymin-Obs) [2]: 12.12

CCc1ccc2cc(CN3CC[C@H](Oc4ccc5c(c4)CN(C4CCC(=O)NC4=O)C5=O)C3)ccc2n1 (stereo partly drawn) [3-(5-{[(3S)-1-[(2-ethylquinolin-6-yl)methyl]pyrrolidin-3-yl]oxy}-1-oxo-2,3-dihydro-1H-isoindol-2-yl)piperidine-2,6-dione]
293T-LentiX WEE1-ePL Degradation 4 hr (Ymin) [1]: 27
DC50 [1]: 3.02 nM
EC50 [2]: 25.2 nM
MKN45 Cell Prolif. 120 hr (Ymin-Obs) [2]: 12.49

C#Cc1ncc2cc(CN3CC[C@H](Oc4ccc5c(c4)CN(C4CCC(=O)NC4=O)C5=O)C3)ccc2n1 (stereo partly drawn) [3-(5-{[(3S)-1-[(2-ethynylquinazolin-6-yl)methyl]pyrrolidin-3-yl]oxy}-1-oxo-2,3-dihydro-1H-isoindol-2-yl)piperidine-2,6-dione]
293T-LentiX WEE1-ePL Degradation 4 hr (Ymin) [1]: 45
DC50 [1]: 16.5 nM
EC50 [2]: 70.2 nM
MKN45 Cell Prolif. 120 hr (Ymin-Obs) [2]: 28.856

C#Cc1ccc2cc(CN3CC[C@H](Oc4ccc5c(c4)CN(C4CCC(=O)NC4=O)C5=O)C3)ccc2n1 (stereo partly drawn) [3-(5-{[(3S)-1-[(2-ethynylquinolin-6-yl)methyl]pyrrolidin-3-yl]oxy}-1-oxo-2,3-dihydro-1H-isoindol-2-yl)piperidine-2,6-dione]
293T-LentiX WEE1-ePL Degradation 4 hr (Ymin) [1]: 32
DC50 [1]: 3.14 nM
EC50 [2]: 260 nM
MKN45 Cell Prolif. 120 hr (Ymin-Obs) [2]: 6.523

COc1ncc2cc(CN3CC[C@H](Oc4ccc5c(c4)CN(C4CCC(=O)NC4=O)C5=O)C3)ccc2n1 (stereo partly drawn) [3-(5-{[(3S)-1-[(2-methoxyquinazolin-6-yl)methyl]pyrrolidin-3-yl]oxy}-1-oxo-2,3-dihydro-1H-isoindol-2-yl)piperidine-2,6-dione]
293T-LentiX WEE1-ePL Degradation 4 hr (Ymin) [1]: 37
DC50 [1]: 8.05 nM
EC50 [2]: 22.3 nM
MKN45 Cell Prolif. 120 hr (Ymin-Obs) [2]: 8.47

COc1ccc2cc(CN3CC[C@H](Oc4ccc5c(c4)CN(C4CCC(=O)NC4=O)C5=O)C3)ccc2n1 (stereo partly drawn) [3-(5-{[(3S)-1-[(2-methoxyquinolin-6-yl)methyl]pyrrolidin-3-yl]oxy}-1-oxo-2,3-dihydro-1H-isoindol-2-yl)piperidine-2,6-dione]
293T-LentiX WEE1-ePL Degradation 4 hr (Ymin) [1]: 36
DC50 [1]: 6.24 nM
EC50 [2]: 45.2 nM
MKN45 Cell Prolif. 120 hr (Ymin-Obs) [2]: 19.71

Cn1cc2cc(CN3CC[C@H](Oc4ccc5c(c4)CN(C4CCC(=O)NC4=O)C5=O)C3)ccc2n1 (stereo partly drawn) [3-(5-{[(3S)-1-[(2-methyl-2H-indazol-5-yl)methyl]pyrrolidin-3-yl]oxy}-1-oxo-2,3-dihydro-1H-isoindol-2-yl)piperidine-2,6-dione]
293T-LentiX WEE1-ePL Degradation 4 hr (Ymin) [1]: 52
DC50 [1]: 40.5 nM
EC50 [2]: > 10000 nM
MKN45 Cell Prolif. 120 hr (Ymin-Obs) [2]: 81.985

Cc1cc(CN2CC[C@H](Oc3ccc4c(c3)CN(C3CCC(=O)NC3=O)C4=O)C2)ccn1 (stereo partly drawn) [3-(5-{[(3S)-1-[(2-methylpyridin-4-yl)methyl]pyrrolidin-3-yl]oxy}-1-oxo-2,3-dihydro-1H-isoindol-2-yl)piperidine-2,6-dione]
293T-LentiX WEE1-ePL Degradation 4 hr (Ymin) [1]: 39.18
DC50 [1]: 39.5 nM
EC50 [2]: 663 nM
MKN45 Cell Prolif. 120 hr (Ymin-Obs) [2]: 37.845

Cc1ncc2cc(CN3CC[C@H](Oc4ccc5c(c4)CN(C4CCC(=O)NC4=O)C5=O)C3)ccc2n1 (stereo partly drawn) [3-(5-{[(3S)-1-[(2-methylquinazolin-6-yl)methyl]pyrrolidin-3-yl]oxy}-1-oxo-2,3-dihydro-1H-isoindol-2-yl)piperidine-2,6-dione]
293T-LentiX WEE1-ePL Degradation 4 hr (Ymin) [1]: 34.5
DC50 [1]: 29.6 nM
EC50 [2]: 27.1 nM
MKN45 Cell Prolif. 120 hr (Ymin-Obs) [2]: 7.995

Cc1ncc2ccc(CN3CC[C@H](Oc4ccc5c(c4)CN(C4CCC(=O)NC4=O)C5=O)C3)cc2n1 (stereo partly drawn) [3-(5-{[(3S)-1-[(2-methylquinazolin-7-yl)methyl]pyrrolidin-3-yl]oxy}-1-oxo-2,3-dihydro-1H-isoindol-2-yl)piperidine-2,6-dione]
293T-LentiX WEE1-ePL Degradation 4 hr (Ymin) [1]: 35.02
DC50 [1]: 65.5 nM
EC50 [2]: 365 nM
MKN45 Cell Prolif. 120 hr (Ymin-Obs) [2]: 32.41

Cc1nc2ccccc2cc1CN1CC[C@H](Oc2ccc3c(c2)CN(C2CCC(=O)NC2=O)C3=O)C1 (stereo partly drawn) [3-(5-{[(3S)-1-[(2-methylquinolin-3-yl)methyl]pyrrolidin-3-yl]oxy}-1-oxo-2,3-dihydro-1H-isoindol-2-yl)piperidine-2,6-dione]
293T-LentiX WEE1-ePL Degradation 4 hr (Ymin) [1]: 34.08
DC50 [1]: 8.04 nM
EC50 [2]: 34.8 nM
MKN45 Cell Prolif. 120 hr (Ymin-Obs) [2]: 11.29

Cc1ccc2cc(CN3CC[C@H](Oc4ccc5c(c4)CN(C4CCC(=O)NC4=O)C5=O)C3)ccc2n1 (stereo partly drawn) [3-(5-{[(3S)-1-[(2-methylquinolin-6-yl)methyl]pyrrolidin-3-yl]oxy}-1-oxo-2,3-dihydro-1H-isoindol-2-yl)piperidine-2,6-dione]
293T-LentiX WEE1-ePL Degradation 4 hr (Ymin) [1]: 30.3
DC50 [1]: 3.81 nM
EC50 [2]: 22.3 nM
MKN45 Cell Prolif. 120 hr (Ymin-Obs) [2]: 13.85

CC(C)(C)c1ccc2cc(CN3CC[C@H](Oc4ccc5c(c4)CN(C4CCC(=O)NC4=O)C5=O)C3)ccc2n1 (stereo partly drawn) [3-(5-{[(3S)-1-[(2-tert-butylquinolin-6-yl)methyl]pyrrolidin-3-yl]oxy}-1-oxo-2,3-dihydro-1H-isoindol-2-yl)piperidine-2,6-dione]
293T-LentiX WEE1-ePL Degradation 4 hr (Ymin) [1]: 29
DC50 [1]: 2.8 nM
EC50 [2]: 9.2 nM
MKN45 Cell Prolif. 120 hr (Ymin-Obs) [2]: 11.88

O=C1CCC(N2Cc3cc(O[C@H]4CCN(Cc5ccc6nc(N7CC8(COC8)C7)ncc6c5)C4)ccc3C2=O)C(=O)N1 (stereo partly drawn) [3-(5-{[(3S)-1-[(2-{2-oxa-6-azaspiro[3.3]heptan-6-yl}quinazolin-6-yl)methyl]pyrrolidin-3-yl]oxy}-1-oxo-2,3-dihydro-1H-isoindol-2-yl)piperidine-2,6-dione]
293T-LentiX WEE1-ePL Degradation 4 hr (Ymin) [1]: 37
DC50 [1]: 35.5 nM
EC50 [2]: 21.8 nM
MKN45 Cell Prolif. 120 hr (Ymin-Obs) [2]: 15.5

O=C1CCC(N2Cc3cc(O[C@H]4CCN(Cc5ccc6nc(N7CC8(COC8)C7)ccc6c5)C4)ccc3C2=O)C(=O)N1 (stereo partly drawn) [3-(5-{[(3S)-1-[(2-{2-oxa-6-azaspiro[3.3]heptan-6-yl}quinolin-6-yl)methyl]pyrrolidin-3-yl]oxy}-1-oxo-2,3-dihydro-1H-isoindol-2-yl)piperidine-2,6-dione]
293T-LentiX WEE1-ePL Degradation 4 hr (Ymin) [1]: 41.5
DC50 [1]: 7.76 nM
EC50 [2]: 10.7 nM
MKN45 Cell Prolif. 120 hr (Ymin-Obs) [2]: 14.91

O=C1CCC(N2Cc3cc(O[C@H]4CCN(Cc5ccc6nc(C78CCOCC7C8)ccc6c5)C4)ccc3C2=O)C(=O)N1 (stereo partly drawn) [3-(5-{[(3S)-1-[(2-{3-oxabicyclo[4.1.0]heptan-6-yl}quinolin-6-yl)methyl]pyrrolidin-3-yl]oxy}-1-oxo-2,3-dihydro-1H-isoindol-2-yl)piperidine-2,6-dione]
293T-LentiX WEE1-ePL Degradation 4 hr (Ymin) [1]: 33.33
DC50 [1]: 3.1 nM
EC50 [2]: 2.16 nM
MKN45 Cell Prolif. 120 hr (Ymin-Obs) [2]: 9.735

O=C1CCC(N2Cc3cc(O[C@H]4CCN(Cc5ccc6nc(N7CCC78COC8)ncc6c5)C4)ccc3C2=O)C(=O)N1 (stereo partly drawn) [3-(5-{[(3S)-1-[(2-{6-oxa-1-azaspiro[3.3]heptan-1-yl}quinazolin-6-yl)methyl]pyrrolidin-3-yl]oxy}-1-oxo-2,3-dihydro-1H-isoindol-2-yl)piperidine-2,6-dione]
293T-LentiX WEE1-ePL Degradation 4 hr (Ymin) [1]: 37
DC50 [1]: 8.5 nM
EC50 [2]: 14.2 nM
MKN45 Cell Prolif. 120 hr (Ymin-Obs) [2]: 14.05
